Measured values: patent US20240252546A1, “NEURITE OUTGROWTH PROMOTION KIT AND USE THEREFOR” (KEIO UNIVERSITY, priority 2021, published 2024)

Experiments:
Format in all cases: cell-based, human
[1] = tested on: phosphorylated CDC25B; test: Phosphorylated CDC25B in nerve cells after inducing differentiation (Experimental Example 12); conditions: 201B7 neurospheres treated 24 hours, differentiated 14 days; compared with the untreated case
Protocol: Neurospheres were treated with DAPT or Compound 34, and the amount of phosphorylated CDC25B after inducing differentiation into nerve cells was examined.
Neurospheres derived from 201B7 cells, which are cells of a human iPS cell line, were prepared in the same manner as in Experimental Example 1. Subsequently, each neurosphere was cultured for 24 hours in the presence of each of DAPT and Compound 34. DAPT and Compound 34 were used at the same concentrations as in Experimental Example 1.
Subsequently, each neurosphere was seeded on a 48-well chamber slide (IWAKI & CO., LTD.) coated with poly-L-ornithine/fibronectin, cultured for 14 days in a culture medium containing no growth factor at 37° C. in an environment of 95% air and 5% CO2, and differentiated into nerve cells.
Subsequently, each of the obtained nerve cells was fixed with 4% paraformaldehyde and subjected to immunostaining of each of βIII-tubulin, which is a nerve cell marker, and phosphorylated CDC25B.
FIGS. 20(a) to 20(f) show fluorescence photomicrographs showing the representative results of immunostaining. The scale bar is 100 μm. […]

[2] = tested on: CDC25B; test: Expression level of CDC25B by RNA-seq (Experimental Example 4); conditions: 201B7 neurospheres, vs control
From the text: FIG. 9 is a graph showing the results obtained by treating the neurosphere derived from 201B7 cells with each of DAPT and Compound 34, carrying out the RNA-seq analysis, and quantifying the expression level of CDC25B based on transcriptome data.

[3] = tested on: phosphorylated CDC25B; test: Immunostaining of phosphorylated CDC25B in treated neurospheres (Experimental Example 4); conditions: 201B7 neurospheres; 10 μM DAPT, 1 μM Compound 34, 24 hours; vs control
Protocol: Neurospheres derived from 201B7 cells were treated with various γ-secretase inhibitors in the same manner as in Experimental Example 1. As the γ-secretase inhibitor, DAPT, Compound 34, L-685,458, LY411575, Sulindac, and Compound E were used at the same concentrations as in Experimental Example 1. Subsequently, each neurosphere was fixed with paraformaldehyde and subjected to immunostaining of phosphorylated CDC25B.
FIG. 8 is a graph showing the results obtained by quantifying the amount of the phosphorylated CDC25B in the neurosphere which had been treated with each of the γ-secretase inhibitors.

[4] = tested on: p38; test: Expression level of p38 by RNA-seq (Experimental Example 3); conditions: 201B7 neurospheres, vs control
From the text: FIG. 6 is a graph showing the results obtained by treating the neurosphere derived from 201B7 cells with each of DAPT and Compound 34, carrying out the RNA-seq analysis, and quantifying the expression level of p38 based on transcriptome data.

| Compound | amount of phosphorylated CDC25B after inducing differentiation into nerve cells [1] | expression level of CDC25B [2] | amount of phosphorylated CDC25B in the neurosphere [3] | expression level of p38 [4] |
| --- | --- | --- | --- | --- |
| O=C1Nc2ccccc2C(c2ccccc2)=N[C@@H]1NC(=O)[C@H](c1ccc(F)cc1)[C@@H](CO)c1ccc(F)c(F)c1 [Compound 34] | increased | slightly increased | significantly increased | not increased |
| C[C@H](NC(=O)Cc1cc(F)cc(F)c1)C(=O)N[C@H](C(=O)OC(C)(C)C)c1ccccc1 [DAPT] | increased | slightly increased | significantly increased | not increased |
